# Data reported in article PMC4460186, “Fast and reliable production, purification and characterization of heat-stable, bifunctional enzyme chimeras” (AMB Express, 2015).
# Key:
# BC = tested on: T1, BC; experiment: 4-nitrophenol release, absorbance at […] nm; type: biochemical, uncultured archaeon; details: 10 mM NaPO4 pH 7.0, 80°C (standard assay); read-out: Substrate, 4-NP-β-D-GP / KM
# T1 construct: gene bgl1; single-polypeptide fusion HIS-Bgl1-Cel5A-STREP, Ser-Ser linker, tags kept; from E. coli M15[pREP4]; with Endoglucanase
# CB = tested on: T2, CB; experiment: 4-nitrophenol release, absorbance at […] nm; type: biochemical, uncultured archaeon; details: 10 mM NaPO4 pH 7.0, 80°C (standard assay); read-out: Substrate, 4-NP-β-D-GP / KM
# T2 construct: gene bgl1; single-polypeptide fusion HIS-Cel5A-Bgl1-STREP, Ser-Ser linker, tags kept; from E. coli M15[pREP4]; truncated STREP-tagged Bgl1 degradation products remain in eluate; with Endoglucanase
structure (smiles),measurement,setting,value
"O=[N+]([O-])c1ccc(O[C@@H]2O[C@H](CO)[C@@H](O)[C@H](O)[C@H]2O)cc1 [4-NP-β-D-GP, 4-nitrophenyl-β-D-glucopyranoside]",Km,BC,530 µM
same,Km,CB,530 µM
